ChEMBL document CHEMBL3797134, “Selectivity of 3-bromo-isoxazoline inhibitors between human and Plasmodium falciparum glyceraldehyde-3-phosphate dehydrogenases” (Bioorg Med Chem, 2016)
Activity calls are given as the source filed them. The rule behind the calls is not given here.

Legend:
[1] = tested on: COc1ccc(C2CC(Br)=NO2)cc1; experiment: Binding affinity to recombinant N-terminal His-tagged human GAPDH expressed in Escherichia coli BL21 codonPlus (DE3)-RIL cells assessed as enzyme Km at 50 uM after 4 hrs by Michaelis-Menten plot analysis (reference value: 340+/- 5 uM)
[2] = tested on: COc1ccc(C2CC(Br)=NO2)cc1; experiment: Binding affinity to recombinant N-terminal His-tagged human GAPDH expressed in Escherichia coli BL21 codonPlus (DE3)-RIL cells assessed as enzyme Vmax at 50 uM after 4 hrs by Michaelis-Menten plot analysis (reference value: 0.069 +/- 0.003 mM/min)
[3] = molecular target: Glyceraldehyde-3-phosphate dehydrogenase (Homo sapiens) (UniProt P04406); experiment: Binding affinity to recombinant N-terminal His-tagged human GAPDH expressed in Escherichia coli BL21 codonPlus (DE3)-RIL cells assessed as decrease in reactive cysteine content at 50 uM after 4 hrs relative to control; design: scale not given: the % may be the effect or the level left
[4] = molecular target: Glyceraldehyde-3-phosphate dehydrogenase (Homo sapiens) (UniProt P04406); experiment: Binding affinity to recombinant N-terminal His-tagged human GAPDH expressed in Escherichia coli BL21 codonPlus (DE3)-RIL cells assessed as remaining cysteine pKa at 300 uM after 4 hrs (reference value: 6)
[5] = molecular target: Glyceraldehyde-3-phosphate dehydrogenase (Homo sapiens) (UniProt P04406); experiment: Fast phase inhibition of recombinant N-terminal His-tagged human GAPDH expressed in Escherichia coli BL21 codonPlus (DE3)-RIL cells using sodium arseniate as substrate assessed as ratio of Kinact to Ki by Kitz-Wilson double reciprocal plot analysis
[6] = molecular target: Glyceraldehyde-3-phosphate dehydrogenase (Plasmodium falciparum) (UniProt Q8T6B1); experiment: Inhibition of recombinant His-tagged Plasmodium falciparum GAPDH expressed in Escherichia coli using sodium arseniate as substrate at 50 to 300 uM
[7] = molecular target: Glyceraldehyde-3-phosphate dehydrogenase (Plasmodium falciparum) (UniProt Q8T6B1); experiment: Slow phase inhibition of recombinant His-tagged Plasmodium falciparum GAPDH expressed in Escherichia coli using sodium arseniate as substrate assessed as ratio of Kinact to Ki by Kitz-Wilson double reciprocal plot analysis
[8] = molecular target: Glyceraldehyde-3-phosphate dehydrogenase (Homo sapiens) (UniProt P04406); experiment: Inhibition of recombinant N-terminal His-tagged human GAPDH expressed in Escherichia coli BL21 codonPlus (DE3)-RIL cells using sodium arseniate as substrate at 10 to 300 uM
[9] = molecular target: Glyceraldehyde-3-phosphate dehydrogenase (Homo sapiens) (UniProt P04406); experiment: Effect on dimer to tetramer equilibrium of recombinant N-terminal His-tagged human GAPDH expressed in Escherichia coli BL21 codonPlus (DE3)-RIL cells at 50 uM after 4 hrs by gel filtration method
[10] = molecular target: Glyceraldehyde-3-phosphate dehydrogenase (Plasmodium falciparum) (UniProt Q8T6B1); experiment: Fast phase inhibition of recombinant His-tagged Plasmodium falciparum GAPDH expressed in Escherichia coli using sodium arseniate as substrate assessed as ratio of Kinact to Ki by Kitz-Wilson double reciprocal plot analysis

Sequence of Glyceraldehyde-3-phosphate dehydrogenase (Homo sapiens) (P04406 2-335 limits assumed): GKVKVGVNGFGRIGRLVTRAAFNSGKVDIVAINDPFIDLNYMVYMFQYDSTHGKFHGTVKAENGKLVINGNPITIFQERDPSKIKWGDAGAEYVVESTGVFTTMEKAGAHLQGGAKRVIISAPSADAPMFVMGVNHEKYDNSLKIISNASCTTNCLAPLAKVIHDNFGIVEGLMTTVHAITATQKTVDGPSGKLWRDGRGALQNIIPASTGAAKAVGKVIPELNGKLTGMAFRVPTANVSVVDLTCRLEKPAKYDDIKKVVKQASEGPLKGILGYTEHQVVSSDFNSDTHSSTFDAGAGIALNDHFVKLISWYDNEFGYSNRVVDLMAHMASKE
Sequence of Glyceraldehyde-3-phosphate dehydrogenase (Plasmodium falciparum) (Q8T6B1 as listed by the source): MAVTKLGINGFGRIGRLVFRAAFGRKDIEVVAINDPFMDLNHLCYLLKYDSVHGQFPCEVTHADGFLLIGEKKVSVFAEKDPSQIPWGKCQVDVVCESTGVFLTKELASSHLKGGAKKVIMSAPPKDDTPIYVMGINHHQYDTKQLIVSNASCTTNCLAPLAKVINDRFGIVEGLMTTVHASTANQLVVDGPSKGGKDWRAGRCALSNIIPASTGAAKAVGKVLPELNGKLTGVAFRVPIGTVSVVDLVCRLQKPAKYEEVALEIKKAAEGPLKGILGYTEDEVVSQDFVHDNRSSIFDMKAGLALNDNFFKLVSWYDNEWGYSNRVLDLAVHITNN
Sequence of Glyceraldehyde-3-phosphate dehydrogenase (Homo sapiens), P04406 (P04406 whole entry): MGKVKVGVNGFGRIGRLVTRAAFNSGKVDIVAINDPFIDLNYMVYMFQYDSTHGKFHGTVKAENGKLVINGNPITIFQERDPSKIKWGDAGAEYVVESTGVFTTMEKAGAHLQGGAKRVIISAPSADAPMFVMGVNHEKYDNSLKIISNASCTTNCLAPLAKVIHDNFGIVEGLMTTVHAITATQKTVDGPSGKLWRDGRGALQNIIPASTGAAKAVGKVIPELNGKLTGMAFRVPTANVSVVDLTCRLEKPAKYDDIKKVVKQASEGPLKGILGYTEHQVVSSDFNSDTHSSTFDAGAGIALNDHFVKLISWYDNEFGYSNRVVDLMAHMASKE

Glyceraldehyde-3-phosphate dehydrogenase (Homo sapiens), P04406
Km [1]: 299 µM | Vmax [2]: 0.051 mM/min

COc1ccc(C2CC(Br)=NO2)cc1 (stereo unspecified)
Activity [3]: 7.8% | pKa [4]: 6.3 | Ratio [5]: 142 s⁻¹ M⁻¹ | inhibition [6]: 25% | Ratio [7]: 0.34 s⁻¹ M⁻¹ | inhibition [8]: Active | Activity [9]: inactive | Ratio [10]: 59.9 s⁻¹ M⁻¹

COC(=O)[C@@H](N)[C@@H]1CC(Br)=NO1
Ratio [7]: 10.7 s⁻¹ M⁻¹
